“And” between values parts separate entries of the source, which are not always exact repeats. Identical values can stand only once.
Key:
HT-29 = test: Propidium iodide anti-proliferative assay; type: cell-based; settings: Homo sapiens, 48 h incubation, read-out: IC50 ± SEM HT-29
Procedure: (§1) The propidium iodide (PI) tests^31, 32 were further used for assessment of the IC50 of all synthesized compounds and compared to Doxorubicin as a positive control against four cancer cell lines; pancreatic cancer cell line (Panc-1), epithelial line cancer cell (A-549), breast cancer cell line (MCF-7), and colon cancer cell line (HT-29).
(§2) Using the propidium iodide fluorescence assay with doxorubicin as the reference drug, IC50 of the 24 compounds 7a-x, was carried out according to a previously reported procedure^31, 32 against a panel of four human cancer cell lines; epithelial cancer cell line (A-549), breast cancer cell line (MCF-7), colon cancer cell line (HT-29) and pancreas cancer cell line (Panc-1). Compounds 7a-x were incubated with cancer cells for 2 days at different concentrations. See Appendix A.
(§3) To explore the antiproliferative potential of compounds propidium iodide fluorescence assay was performed using different cell lines (melanoma cancer cell line LOX-IMVI, pancreatic cancer cell line (Panc-1), epithelial line cancer cell (A-549), breast cancer cell line (MCF-7), and colon cancer cell line (HT-29). To calculate the total nuclear DNA, a fluorescent dye (propidium iodide, PI) is used which can attach to the DNA,^9,^10 thus offering a quick and precise technique. PI cannot pass through the cell membrane and its signal intensity can be considered as directly proportional to the quantity of cellular DNA. Cells whose cell membranes are damaged or have changed permeability are counted as dead ones. The assay was performed by seeding the cells of different cancer cell lines at a density of 3000-7500 cells/well (in 200µl medium) in culture plates followed by incubation for 24h at 37 °C in humidified 5% CO2/95% air atmospheric conditions. The medium was removed; the compounds were added to the plates at 10 µM concentrations (in 0.1% DMSO) in triplicates, followed by incubation for 48 h. DMSO (0.1%) was used as control. After incubation, medium was removed followed by the addition of PI (25 µl, 50µg/mL in water/medium) to each well of the plates. At -80 °C, the plates were allowed to freeze for 24 h, followed by thawing at 25 °C. A fluorometer (Polar-Star BMG Tech) was used to record the readings at excitation and emission wavelengths of 530 and 620 nm for each well. The percentage cytotoxicity of compounds was calculated using the following formula:
(§4) Where ATC= Absorbance of treated cells and AC= Absorbance of control. […]

Panc-1 = test: Propidium iodide anti-proliferative assay; type: cell-based; settings: Homo sapiens, 48 h incubation, read-out: IC50 ± SEM Panc-1
Procedure: as §1, §2, §3, §4

MCF-7 = test: Propidium iodide anti-proliferative assay; type: cell-based; settings: Homo sapiens, MCF7; 48 h incubation; read-out: IC50 ± SEM MCF-7
Procedure: as §1, §2, §3, §4

A-549 = test: Propidium iodide anti-proliferative assay; type: cell-based; settings: Homo sapiens, A549; 48 h incubation; read-out: IC50 ± SEM A-549
Procedure: as §1, §2, §3, §4

[1] = MTT cell viability assay in normal cells; type: cell-based; settings: human, MCF-10A normal mammary epithelial cells
Procedure: To check the safety of prepared compounds and evaluate their selectivity towards tumor cells over normal ones, the toxicity of compounds 7a-x were evaluated by 3-(4,5-Dimethylthiazole-2-yl)-2,5-diphenyltetrazol (MTT) assay on the normal human mammary epithelial cell line (MCF-10 A). The human mammary epithelial cell lines were incubated for four days with a concentration of 50 µM of compounds 7a-x.
MTT assay was done to determine the effect of the synthesized compounds on the viability of mammary epithelial cells (MCF-10 A). Compounds 7a-x were incubated with MCF-10 A cells for 4 days at 50 µM concentration, and the viability of cells was determined. See Appendix A.
MTT assay was carried out to study the effect of compounds on mammary epithelial cells (MCF-10A).^7, ^8 The medium in which cells were propagated contained Dulbecco's modified Eagle's medium (DMEM)/ Ham's F-12 medium (1:1) supplemented with epidermal growth factor (20 ng/mL), hydrocortisone (500 ng/mL), insulin (10 μg/mL), 2 mM glutamine and 10% foetal calf serum. After every 2-3 days, the cells were passaged using trypsin ethylenediamine tetra acetic acid (EDTA). The cells were seeded at a density of 10^4 cells mL^-1 in flat-bottomed culture plates containing 96 wells each. After 24 h, medium was removed from the plates and the compounds in (in 0.1% DMSO) were added (in 200 μL medium to yield a final concentration of 0.1% v/v) to the wells of plates. A single compound was designated with four wells followed by incubation of plates for 96h at 37°C. After incubation, medium was removed completely from the plates followed by addition of MTT (0.4 mg/mL in medium) to each well and subsequent incubation of plates for 3h. MTT (along with the medium) was removed and DMSO (150μL) was added to each well of the culture plates, followed by vortexing and subsequent measurement of absorbance (at 540 nm) using microplate reader.

[2] = system: Caspase-9 in MCF-7 breast cancer cells; test: Caspase-9 assay; type: cell-based, human
[3] = system: Caspase-8 in MCF-7 breast cancer cells; test: Caspase-8 assay; type: cell-based, human
Bcl-2 in MCF-7 = test: Bcl-2 inhibition assay
Procedure: All reagents were thoroughly mixed without foaming before use. The microwells were washed twice with approximately 300 µL Wash Buffer per well with the thorough aspiration of microwell contents between washes. Care was taken not to scratch the surface of the microwells. After the last wash, the wells were emptied and microwell strips were tapped on an absorbent pad or paper towel to remove excess Wash Buffer. The microwell strips were used immediately after washing or placed upside down on a wet absorbent paper for not longer than 15 min. Wells were not allowed to dry. A total of 100 µL of Sample Diluent was added in duplicate to all standard wells and the blank wells. Standard (1:2 dilution) in duplicate was prepared ranging from 32 to 0.5 ng/mL. A total of 100 µL of Sample Diluent, in duplicate, was added to the blank wells. A total of 80 µL of Sample Diluent, in duplicate, was added to the sample wells. A total of 20 µL of each sample, in duplicate, was added to the designated wells. A total of 50 µL of diluted biotin was added, conjugated to all wells, including the blank wells. It was covered with a plate cover and incubated at room temperature on a microplate shaker at 100 rpm for 2 h. The plate cover was removed and the wells were emptied. Microwell strips were washed times as described in Step 2. A total of 100 µL of diluted Streptavidin-HRP was added to all wells, including the blank wells. It was covered with a plate cover and incubated at room temperature on a microplate shaker at 100 rpm for 1 h. The plate cover was removed and the wells were emptied. Microwell strips were washed three times, as described in Step 2. A total of 100 µL of mixed TMB Substrate Solution was pipetted into all wells, including the blanks. The microwell strips were incubated at room temperature (18 ◦C to 25 ◦C) for about 15 min, on a rotator set at 100 rpm. Direct exposure to intense light was avoided. The point at which the substrate reaction is stopped was determined by the ELISA reader. Many ELISA readers record absorbance only up to 2.0 O.D. Therefore, the color development within individual microwells was watched by the person running the assay, and the substrate reaction was stopped before positive wells were no longer properly detectable. The enzyme reaction was stopped by quickly pipetting 100 µL of Stop Solution into each well, including the blank wells. It was important that the Stop Solution was spread quickly and uniformly throughout the microwells to inactivate the enzyme completely. Results were read immediately after the Stop Solution was added or within one hour if the microwell strips were stored at 2–8 ◦C in the dark. The absorbance of each microwell was read on a spectrophotometer using 450 nm as the primary wavelength.

[4] = system: Caspase-3 in MCF-7 breast cancer cells; test: Caspase-3 assay
Procedure: All reagents were allowed to reach room temperature before use. All liquid reagents were gently mixed before use. The number of 8-well strips needed for the assay was determined. These were inserted into the frame(s) for current use. A total of 100 µL of the Standard Diluent Buffer was added to the zero standard wells. Well(s) reserved for chromogen blank were left empty. A total of 100 µL of standards and controls or diluted samples was added to the appropriate microtiter wells. The sample dilution chosen was optimized for each experimental system. The side of the plate was gently tapped on to
mix. Wells were covered with a plate cover and incubated for 2 h at room temperature. The solution was thoroughly aspirated or decanted from the wells and the liquid was discarded; wells were washed four times. […] The side of the plate was gently tapped on to mix. The plate was covered with a plate cover and incubated for 1h at room temperature. The solution was thoroughly aspirated or decanted from wells and the liquid was discarded; wells were washed four times. A total of 100 µL Anti-Rabbit IgG HRP Working Solution was added to each well except the chromogen blank(s). The working dilution was prepared as described in Preparing IgG HRP. Wells were covered with the plate cover and incubated for 30 min at room temperature. The solution was thoroughly aspirated or decanted from the wells and the liquid was discarded. Wells were washed four times. A total of 100 µL of Stabilized Chromogen was added to each well. The liquid in the wells began to turn blue. It was incubated for 30 min at room temperature and in the dark. The incubation time for chromogen substrate was determined by the microtiter plate reader used. Many plate readers have the capacity to record a maximum optical density (O.D.) of 2.0. The O.D. values were monitored, and the substrate reaction was stopped before the O.D. of the positive wells exceeds the limits of the instrument. The O.D. values at 450 nm could only be read after the Stop Solution had been added to each well. A total of 100 µL of Stop Solution was added to each well. The side of the plate was gently tapped to mix. The solution in the wells changed from blue to yellow. The absorbance of each well was read at 450 nm, having blanked the plate reader against a chromogen blank composed of 100 µL each of Stabilized Chromogen and Stop Solution. The plate was read within 2 h after adding the Stop Solution. A curve fitting software was used to generate the standard curve.
The concentrations for unknown samples and controls from the standard curve were read. Value(s) obtained for sample(s) by the appropriate dilution factor were multiplied to correct for the dilution in step 3.

[5] = system: Panc-1, A-549, MCF-7 and HT-29; test: Propidium iodide anti-proliferative assay, four cell lines together; type: cell-based; settings: Homo sapiens; range over Panc-1, A-549, MCF-7, HT-29; read-out: IC50 range on the four tested cell lines
Procedure: as §1, §2
as §3, with “The medium was removed; the compounds were added to the plates at 10 µM concentrations (in 0.1% DMSO) in triplicates, followed by incubation for 48 h. DMSO (0.1%) was used as control. After incubation, medium was removed followed by the addition of PI (25 µl, 50µg/mL in water/medium) to each well of the plates. At -80 °C, the plates were allowed to freeze for 24 h, followed by thawing at 25 °C.” left out
as §4

[6] = system: Cytochrome C in MCF-7 human breast cancer cell line; test: Cytochrome C assay; type: cell-based
BAX in MCF-7 = test: BAX activation assay
Procedure: All reagents were brought to room temperature for at least 30 min before opening (except the human BAX-α Standard). Human BAX-α Standard solution was not be left at room temperature for more than 10 min. Duplicates of all standards, controls, and samples were run. The Assay Layout Sheet was used to determine the number of wells to be used, and any remaining wells were put with the desiccant back into the pouch, and the ziplock was sealed. Unused wells were stored at 4 ◦C. A total of 100 µL of Assay Buffer was pipetted into the S0 (0 pg/mL standard) wells. A total of 100 µL of Standards #1 through #6 was pipetted into the appropriate wells. A total of 100 µL of the samples was pipetted into the appropriate wells. The plate was gently tapped to mix the contents. The plate was sealed and incubated at room temperature on a plate shaker for 1 h at ~500 rpm. The contents of the wells were emptied and washed by adding 400 µL of wash solution to every well. The wash was repeated four more times for a total of five washes. After the final wash, the wells were emptied or aspirated and firmly the plate on a lint-free paper towel was tapped to remove any remaining wash buffer. A total of 100 µL of yellow antibody was pipetted into each well, except the Blank. The plate was sealed and incubated at room temperature on a plate shaker for 1 h at ~500 rpm. The contents of the wells were emptied and washed by adding 400 µL of wash solution to every well. The wash was repeated four more times for a total of five washes. After the final wash, the wells were emptied or aspirated, and the plate was firmly tapped on a lint-free paper towel to remove any remaining wash buffer. A total of 100 µL of blue Conjugate was added to each well, except the Blank. The plate was sealed and incubated at room temperature on a plate shaker for 30 min at ~500 rpm. The contents of the wells were emptied and washed by adding 400 µL of wash solution to every well. The wash was repeated four more times for a total of five washes. After the final wash, the wells were emptied or aspirated and the plate was firmly tapped on a lint-free paper towel to remove any remaining wash buffer. A total of 100 µL of Substrate Solution was pipetted into each well. It was incubated for 30 min at room temperature on a plate shaker at ~500 rpm. A total of 100 µL Stop Solution was pipetted into to each well. The plate reader was blanked against the Blank wells, and the optical density was read at 450 nm. The average net optical density (OD) bound for each standard and sample was calculated by subtracting the average Blank OD from the average OD for each standard and sample. Using linear graph paper, the Average Net OD for each standard versus BAX concentration in each standard were plotted. A straight line was approximated through the points. The concentration of BAX in the unknowns could be determined by interpolation.

Row | SMILES | IC50 (HT-29) [µM] | IC50 (Panc-1) [µM] | IC50 (MCF-7) [µM] | IC50 (A-549) [µM] | melting point [°C] | viability at 96 h, 50 µM [1] [%] | Caspase-9 Fold change ([2]; MCF-7, vs untreated control) [fold] | Caspase-9 Conc ([2]; MCF-7 breast cancer cells) [ng/mL] | Caspase-8 Fold change ([3]; MCF-7, vs untreated control) [fold] | Caspase-8 Conc ([3]; MCF-7 breast cancer cells) [ng/mL] | Bcl-2 Conc (Bcl-2 in MCF-7; MCF-7) | Bcl-2 Fold reduction (Bcl-2 in MCF-7; MCF-7, vs untreated control) [fold] | Caspase-3 Fold change ([4]; MCF-7, vs untreated control) [fold] | Caspase-3 Conc ([4]; MCF-7 breast cancer cells) [pg/mL] | IC50 [5] [µM] | Cytochrome C Fold change ([6]; MCF-7, vs untreated control) [fold] | Cytochrome C Conc ([6]; MCF-7 breast cancer cells) [ng/mL] | BAX Conc (BAX in MCF-7; MCF-7) | BAX Fold change (BAX in MCF-7; MCF-7, vs untreated control) [fold]
1 | COc1ccc(/C=C/C(=O)c2ccc(NC(=O)CSc3nnc(-c4ccc5[nH]c(-c6ccc(Cl)cc6)nc5c4)o3)cc2)cc1OC [Compound 7i, 2-{5-[2-(4-Chlorophenyl)-1 H-benzo[d]imidazol-5-yl]-1,3,4-oxadiazol-2-ylthio}-N-{4-[(E)-3-(3,4-dimethoxyphenyl)acryloyl]phenyl}acetamide] | 10.2 ± 1.3 | 10.2 ± 1.2 | 9.2 ± 1 | 9.7 ± 1.1 | 208 to 210 | 84 |  |  |  |  |  |  |  |  |  |  |  |  | 
2 | COc1cc(/C=C/C(=O)c2ccc(NC(=O)CSc3nnc(-c4ccc5[nH]c(-c6ccc(Cl)cc6)nc5c4)o3)cc2)cc(OC)c1OC [Compound 7j, 2-{5-[2-(4-Chlorophenyl)-1 H-benzo[d]imidazol-5-yl]-1,3,4-oxadiazol-2-ylthio}-N-{4-[(E)-3-(3,4,5-trimethoxyphenyl)acryloyl]phenyl}acetamide] | 10.7 ± 1.1 | 10.3 ± 1.2 | 9.4 ± 1.2 | 9.95 ± 1.1 | 223 to 225 | 89 |  |  |  |  |  |  |  |  |  |  |  |  | 
3 | COc1ccc(/C=C/C(=O)c2ccc(NC(=O)CSc3nnc(-c4ccc5[nH]c(-c6ccc(OC)c(OC)c6)nc5c4)o3)cc2)cc1OC [Compound 7s, 2-{5-[2-(3,4-Dimethoxyphenyl)-1 H-benzo[d]imidazol-5-yl]-1,3,4-oxadiazol-2-ylthio}-N-{4-[(E)-3-(3,4-dimethoxyphenyl)acryloyl]phenyl}acetamide] | 4.55 ± 0.6 | 4.3 ± 0.6 | 3.15 ± 0.5 | 3.8 ± 0.6 | 190 to 193 | 87 |  |  |  |  |  |  |  |  |  |  |  |  | 
4 | COc1ccc(-c2nc3cc(-c4nnc(SCC(=O)Nc5ccc(C(=O)/C=C/c6cc(OC)c(OC)c(OC)c6)cc5)o4)ccc3[nH]2)cc1OC [Compound 7t, 2-{5-[2-(3,4-Dimethoxyphenyl)-1 H-benzo[d]imidazol-5-yl]-1,3,4-oxadiazol-2-ylthio}-N-{4-[(E)-3-(3,4,5-trimethoxyphenyl)acryloyl]phenyl}acetamide] | 10.8 ± 1.2 | 10.9 ± 1.2 | 10.1 ± 1 | 10.6 ± 1.1 | 190 to 193 | 88 |  |  |  |  |  |  |  |  |  |  |  |  | 
5 | COc1ccc(/C=C/C(=O)c2ccc(NC(=O)CSc3nnc(-c4ccc5[nH]c(-c6cc(OC)c(OC)c(OC)c6)nc5c4)o3)cc2)cc1 [Compound 7w, 2-{5-[2-(3,4,5-Trimethoxyphenyl)-1 H-benzo[d]imidazol-5-yl]-1,3,4-oxadiazol-2-ylthio}-N-{4-[(E)-3-(4-methoxyphenyl)acryloyl]phenyl}acetamide] | 11.2 ± 1.3 | 11.2 ± 1.2 | 10.2 ± 1.2 | 10.9 ± 1.1 | 200 to 204 | 91 |  |  |  |  |  |  |  |  |  |  |  |  | 
6 | COc1ccc(/C=C/C(=O)c2ccc(NC(=O)CSc3nnc(-c4ccc5[nH]c(-c6cc(OC)c(OC)c(OC)c6)nc5c4)o3)cc2)cc1OC [Compound 7x, 2-{5-[2-(3,4,5-Trimethoxyphenyl)-1 H-benzo[d]imidazol-5-yl]-1,3,4-oxadiazol-2-ylthio}-N-{4-[(E)-3-(3,4-dimethoxyphenyl)acryloyl]phenyl}acetamide] | 12.5 ± 1.5 | 11.8 ± 1.2 | 10.8 ± 1.1 | 11.5 ± 1.2 | 212 to 215 | 85 |  |  |  |  |  |  |  |  |  |  |  |  | 
7 | COc1cccc2c1C(=O)c1c(O)c3c(c(O)c1C2=O)C[C@@](O)(C(=O)CO)C[C@@H]3O[C@H]1C[C@H](N)[C@H](O)[C@H](C)O1 [Doxorubicin, reference compound] | 1.01 ± 0.1 | 1.41 ± 0.1 | 0.9 ± 0.1 | 1.21 ± 0.1 |  |  | 17.40 | 16.200 | 10.00 | 1.750 | 0.98 ng/mL and 0.985 ng/mL | 5.1 | 7.65 | 503.200 ± 4.20 | 0.9 to 1.41 | 13.10 | 0.604 | 276 pg/mL and 276.500 pg/mL | 32.5
